Source: US9758529B2, “Fused dihydro-4H-pyrazolo[5,1-C][1,4]oxazinyl compounds and analogs for treating CNS disorders” (Sunovion Pharmaceuticals Inc., priority 2015, dated 2017)

Each compound was assayed on mice (assay: Neuropharmacological Assay (SmartCube)). Conditions: i.p. 15 min before behavioral test; 3 doses, most efficacious dose(s) presented.
Format: in vivo
In the case of Cl.NCC1OCCCn2nc3ccccc3c21 (centres unmarked) [Compound 56, (4,5-dihydro-1H,3H-[1,4]oxazepino[4,3-b]indazol-1-yl)methanaminium chloride], the “AD: ADHD (probability of class match)” value is reported as “+ (LOQ≦ + <5%)”, the “AG: analgesic (probability of class match)” value (“AG: analgesic” for short) is reported as “+ (LOQ≦ + <5%)” and the “AX: anxiolytic (probability of class match)” value (“AX: anxiolytic” below) is reported as “+ (LOQ≦ + <5%)”. The “CE: cognitive enhancer (probability of class match)” value (“CE: cognitive enhancer” below) was “+ (LOQ≦ + <5%)”, the “DP: anti-depressant (probability of class match)” value (“DP: anti-depressant” below) was “+ (LOQ≦ + <5%)” and the “HA: hallucinogen (probability of class match)” value (“HA: hallucinogen” for short) was “+ (LOQ≦ + <5%)”. For the same compound, the “MS: mood stabilizer (probability of class match)” value (shortened to “MS: mood stabilizer”) was “+ (LOQ≦ + <5%)”, the “PS: anti-psychotic (probability of class match)” value (shortened to “PS: anti-psychotic”) was “+ (LOQ≦ + <5%)” and the “SD: sedative hypnotic (probability of class match)” value (from here on “SD: sedative hypnotic”) was “+ (LOQ≦ + <5%)”. The “UN: uncharacterized CNS activity (probability of class match)” value (“UN: uncharacterized CNS activity” below) was “+ (LOQ≦ + <5%)” and the “XG: anxiogenic (probability of class match)” value (from here on “XG: anxiogenic”) was “+ (LOQ≦ + <5%)”. CCNCC1OCCCn2nc3ccccc3c21.Cl (centres unmarked) [Compound 57, N-((4,5-dihydro-1H,3H-[1,4]oxazepino[4,3-b]indazol-1-yl)methyl)ethanaminium chloride] was tested, and the “AD: ADHD (probability of class match)” value was “+ (LOQ≦ + <5%)”, the “AG: analgesic” value was “+ (LOQ≦ + <5%)” and the “AX: anxiolytic” value was “+ (LOQ≦ + <5%)”. The “CE: cognitive enhancer” value was “+ (LOQ≦ + <5%)”, the “DP: anti-depressant” value was “+ (LOQ≦ + <5%)” and the “HA: hallucinogen” value was “+ (LOQ≦ + <5%)”. For the same compound, the “MS: mood stabilizer” value was “+ (LOQ≦ + <5%)”, the “PS: anti-psychotic” value was “+ (LOQ≦ + <5%)” and the “SD: sedative hypnotic” value was “+ (LOQ≦ + <5%)”. The “UN: uncharacterized CNS activity” value was “+ (LOQ≦ + <5%)” and the “XG: anxiogenic” value was “+ (LOQ≦ + <5%)”. For CNCC1OCCn2nc3ccsc3c21.Cl (centres unmarked) [Compound 58, 1-(6,7-dihydro-9H-thieno[3′,2′:3,4]pyrazolo[5,1-c][1,4]oxazin-9-yl)-N-methylmethanaminium chloride], the “AD: ADHD (probability of class match)” value was “++ (5%≦ ++ <25%)”, the “AG: analgesic” value was “+ (LOQ≦ + <5%)” and the “AX: anxiolytic” value was “++ (5%≦ ++ <25%)”. The “CE: cognitive enhancer” value was “+ (LOQ≦ + <5%)”, the “DP: anti-depressant” value was “++++ (50%≦ ++++)” and the “HA: hallucinogen” value was “++ (5%≦ ++ <25%)”. The “MS: mood stabilizer” value was “+ (LOQ≦ + <5%)”, the “PS: anti-psychotic” value was “+ (LOQ≦ + <5%)” and the “SD: sedative hypnotic” value was “++ (5%≦ ++ <25%)”. The “UN: uncharacterized CNS activity” value was “+ (LOQ≦ + <5%)” and the “XG: anxiogenic” value was “+ (LOQ≦ + <5%)”. For CN(C)CC1OCCn2nc3ccsc3c21.Cl (centres unmarked) [Compound 59, 1-(6,7-dihydro-9H-thieno[3′,2′:3,4]pyrazolo[5,1-c][1,4]oxazin-9-yl)-N,N-dimethylmethanaminium chloride], the “AD: ADHD (probability of class match)” value was “+ (LOQ≦ + <5%)”, the “AG: analgesic” value was “++ (5%≦ ++ <25%)” and the “AX: anxiolytic” value was “++ (5%≦ ++ <25%)”. The “CE: cognitive enhancer” value was “++ (5%≦ ++ <25%)”, the “DP: anti-depressant” value was “++ (5%≦ ++ <25%)” and the “HA: hallucinogen” value was “+ (LOQ≦ + <5%)”. For the same compound, the “MS: mood stabilizer” value was “+ (LOQ≦ + <5%)”, the “PS: anti-psychotic” value was “++ (5%≦ ++ <25%)” and the “SD: sedative hypnotic” value was “+ (LOQ≦ + <5%)”. The “UN: uncharacterized CNS activity” value was “+++ (25%≦ +++ <50%)” and the “XG: anxiogenic” value was “+ (LOQ≦ + <5%)”. Cl.NCC1OCCn2nc3ccsc3c21 (centres unmarked) [Compound 60, (6,7-dihydro-9H-thieno[3′,2′:3,4]pyrazolo[5,1-c][1,4]oxazin-9-yl)methanaminium chloride] was tested, and the “AD: ADHD (probability of class match)” value was “++ (5%≦ ++ <25%)”, the “AG: analgesic” value was “+ (LOQ≦ + <5%)” and the “AX: anxiolytic” value was “+++ (25%≦ +++ <50%)”. The “CE: cognitive enhancer” value was “+ (LOQ≦ + <5%)”, the “DP: anti-depressant” value was “++ (5%≦ ++ <25%)” and the “HA: hallucinogen” value was “+ (LOQ≦ + <5%)”. For the same compound, the “MS: mood stabilizer” value was “+ (LOQ≦ + <5%)”, the “PS: anti-psychotic” value was “+ (LOQ≦ + <5%)” and the “SD: sedative hypnotic” value was “++ (5%≦ ++ <25%)”. The “UN: uncharacterized CNS activity” value was “+ (LOQ≦ + <5%)” and the “XG: anxiogenic” value was “+ (LOQ≦ + <5%)”. With CNCC1OCCn2nc3cnccc3c21.Cl.Cl (centres unmarked) [Compound 61, 1-((methylammonio)methyl)-3,4-dihydro-1H-pyrido[3′,4′:3,4]pyrazolo[5,1-c][1,4]oxazin-8-ium chloride] the “AD: ADHD (probability of class match)” value was “++ (5%≦ ++ <25%)”, the “AG: analgesic” value was “+ (LOQ≦ + <5%)” and the “AX: anxiolytic” value was “+ (LOQ≦ + <5%)”. The “CE: cognitive enhancer” value was “+ (LOQ≦ + <5%)”, the “DP: anti-depressant” value was “++++ (50%≦ ++++)” and the “HA: hallucinogen” value was “++ (5%≦ ++ <25%)”. The “MS: mood stabilizer” value was “+ (LOQ≦ + <5%)”, the “PS: anti-psychotic” value was “+ (LOQ≦ + <5%)” and the “SD: sedative hypnotic” value was “+ (LOQ≦ + <5%)”. For the same compound, the “UN: uncharacterized CNS activity” value was “++ (5%≦ ++ <25%)” and the “XG: anxiogenic” value was “+ (LOQ≦ + <5%)”. In the case of CN(C)CC1OCCn2nc3cnccc3c21.Cl.Cl (centres unmarked) [Compound 62, 1-((dimethylammonio)methyl)-3,4-dihydro-1H-pyrido[3′,4′:3,4]pyrazolo[5,1-c][1,4]oxazin-8-ium chloride], the “AD: ADHD (probability of class match)” value is reported as “+ (LOQ≦ + <5%)”, the “AG: analgesic” value is reported as “+ (LOQ≦ + <5%)” and the “AX: anxiolytic” value is reported as “++ (5%≦ ++ <25%)”. For the same compound, the “CE: cognitive enhancer” value was “+ (LOQ≦ + <5%)”, the “DP: anti-depressant” value was “+ (LOQ≦ + <5%)” and the “HA: hallucinogen” value was “+ (LOQ≦ + <5%)”. For the same compound, the “MS: mood stabilizer” value was “+ (LOQ≦ + <5%)”, the “PS: anti-psychotic” value was “+ (LOQ≦ + <5%)” and the “SD: sedative hypnotic” value was “+ (LOQ≦ + <5%)”. The “UN: uncharacterized CNS activity” value was “+ (LOQ≦ + <5%)” and the “XG: anxiogenic” value was “+ (LOQ≦ + <5%)”.
